PubChem BioAssay AID449764 (Southern Research Specialized Biocontainment Screening …, 2010)

Test system: Mycobacterium tuberculosis H37Rv growth inhibition, no glycerol
Experiment: Confirmatory growth inhibition assay, Mycobacterium tuberculosis H37Rv, absence of glycerol (AID 449764);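 further: growth read after 7 days of incubation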
Details: for IC90: measured here: IC90 growth inhibition

SMILES | IC50 [µM] | IC90 [µM]
CCN1C(=NCCc2ccc(Br)cc2)N[C@@H](c2ccccc2)[C@H](C(=O)OC)[C@H]1C | 22.4 | 25.8
O=C(NNc1nc2ccccc2s1)c1ccccc1F | 39.9 | 59.2
Oc1cc(Nc2ccccc2)cc2cccnc12 | 19.7 | 24.7
Cn1cc(/C=C2\C(=O)NC(=O)N(c3ccccc3)C2=O)c2ccccc21 | 42 | > 100
COc1cnc(-c2ccccn2)nc1Oc1ccc(Cl)c2ccccc12 | 0.67 | 1.38
C=CCOc1c(Br)cc(CNc2nccs2)cc1OC | 31.4 | 48.2
CCNc1nc(NCC)nc(N/N=C/c2ccc([N+](=O)[O-])o2)n1 | 1.3 | 1.7
c1ccc(/N=C2\N=C(Nc3ccccn3)c3ccccc32)nc1 | 2.05 | 3.02
COC(=O)C1C(O)C(C)C(O)C(C)/C=C\C=C(/C)C(=O)Nc2c(C)c(OC(C)=O)c3c(c2O)C(=O)C(C)=C2OCOC(=C23)/C(C)=C/C(C)(O)C(O)C(C)C1O (stereo unspecified) | < 0.2 | < 0.2
O=S(=O)(c1ccc(Cl)cc1)c1snnc1-c1ccccc1 | 18.8 | 29.9
CC(=O)c1ccc(N2CCC(c3cc(-c4ccc(Cl)cc4Cl)n[nH]3)CC2)c([N+](=O)[O-])c1 | 24.3 | > 100
N=C1C(c2nc3ccccc3[nH]2)=C(O)CN1NC(=O)c1c[nH]c2ccccc12 | 26.7 | 40.1
Clc1ccc(SCc2cc(N3CCOCC3)nc(-c3ccccn3)n2)cc1 | 6.68 | 11.6
CN(C)c1ccnc2c[cH-]cc12.[Fe].c1ccc(-[c-]2[c-](-c3ccccc3)[c-](-c3ccccc3)[c-](-c3ccccc3)[c-]2-c2ccccc2)cc1 (stereo unspecified) | 14.3 | 19
CSc1ccc(CNC(=O)c2ccc(NC(=O)C3=CSCCO3)cc2)cc1 | 7.07 | 25.5
Cn1c(NC(=S)Nc2ccccc2)nc2ccccc21 | 5.8 | 6.33
N#CCCN(C(=O)COC(=O)CCc1c[nH]c2ccccc12)c1ccc(F)cc1 | 34.4 | 68.5
COc1cccc2c1C(=O)c1c(O)c3c(c(O)c1C2=O)C[C@@](O)(C(=O)CO)C[C@@H]3O[C@H]1C[C@H](N)[C@@H](O)[C@H](C)O1 | 5.87 | 6.6
COc1ccccc1NC(=O)Nc1nc(CC(=O)N2CCN(c3ccccc3F)CC2)cs1 |  | > 100
Cc1c(CN(C)C)c2c(n1Cc1ccccc1)C(=O)c1ccc(Br)cc1-2 | 24 | 27.8
CCN(CC(=O)NCc1cccs1)C(=O)c1ccc([N+](=O)[O-])o1 | 91.9 | > 100
Cc1cc2c(cc1C)CSC(c1c(O)ccc3ccccc13)SC2 | 61.2 | > 100

SMILES | IC50 [µM] | IC90 [µM]
COc1ccc(NC(=O)CSc2nnc(-c3ccccn3)n2N)cc1Cl | 55.6 | > 100
O=c1cc(O)c2sc3nc(-c4cccnc4)cc(C(F)(F)F)c3c2[nH]1 | 39.8 | > 100
NC(=S)N/N=C/c1ccccc1OCCSc1ccc(Cl)cc1 | 37.8 | > 100
COc1ccc(C2c3[nH]c4ccccc4c3CCN2C(=O)c2cc3ncccn3n2)c(F)c1 (stereo unspecified) |  | > 100
CCn1c2ccccc2c2cc(CN3CCN(Cc4cc(OC)ccc4O)CC3)ccc21 | 17.2 | 23.4
CCOC(=O)c1cc(C)nc(Sc2ccc(C)cc2)c1C#N | 5.32 | 7.74
O=C1NCC(O)=C1C=Nc1ccccc1O | 5.54 | 7.6
Cc1ccc(-n2cccc2C(=S)N=P(N(C)C)(N(C)C)N(C)C)cc1 | 24.6 | 26.1
c1nc2n(n1)C1=C(CCCC1)C1(CCCCC1)N2 | 29.8 | 44.3
O=C(Nc1ccc(C2=NCCN2)cc1)c1ccc(Cl)c(C(=O)Nc2ccc(C3=NCCN3)cc2)c1 | 22.7 | 25.4
CCOC(=O)c1c(CC(C)C)csc1NC(=O)CCl | 2.66 | 11.2
CCN(CC)CCCNc1nc2cc(OC)c(OC)cc2c2nc(-c3ccccc3)nn12 | 11.1 | 12.8
Cc1ccccc1-n1c(SCC(=O)N/N=C/c2c(C)nn(-c3ccccc3)c2C)nc2ccccc2c1=O | 4.6 | 6.27
CCOC(=O)c1ccc(Oc2nc(NC(C)(C)C)nc(N(C)C)n2)cc1 | 58.1 | > 100
Cc1ccnc(Sc2ccc([N+](=O)[O-])cc2[N+](=O)[O-])n1 | 19.8 | 29.7
COc1ccc(-c2nc(NC(=O)Cn3ccc(C(F)(F)F)n3)sc2C)cc1 | 44.6 | 50.4
Cc1cc(=O)oc2cc(Oc3ccc([N+](=O)[O-])cc3C(F)(F)F)ccc12 | 50 | > 100
Cc1ccc(/C=N/NC(=S)NC(C)C)o1 | 42.4 | 46.7
CNC(=S)Nc1ccc(N2CCN(c3ccc(C(F)(F)F)cn3)CC2)nc1 | 9.42 | > 100
CNC[C@@H](Cc1ccccc1)NC[C@@H](CC1CCCCC1)NCCCc1ccccc1 | 7.99 | 9.68
COc1cc(C#Cc2c(-c3cncn3C)n(C)c3ccc(-c4cnc(N5CCOCC5)nc4)cc23)cc(OC)c1 | 49.5 | 55
CCc1ccc(Nc2n[n+](C)c(-c3ccncc3)s2)cc1 | 42.1 | 47.6

SMILES | IC50 [µM] | IC90 [µM]
Cc1cc(C2N=C(N)Nc3nc4ccccc4n32)c(C)n1-c1ccccc1Cl (stereo unspecified) | 17.3 | 21.4
COc1ccc(/C=N/OCC(=O)OCC(=O)N(C)c2ccccc2)cc1 | 25.9 | 51.8
CC(c1ccccc1)N1CCN(C(=O)CCl)CC1 (stereo unspecified) | 2.75 | 4.33
COC(=O)c1ccc(Cn2cc(C(F)(F)F)cc([N+](=O)[O-])c2=O)cc1 | 0.63 | > 100
CCCCCCCCn1cnc2c(N)c(C)c(C)cc21 | 59.8 | 78.3
Fc1ccc(C[n+]2c(-c3ccccc3)cc(-c3ccccc3)cc2-c2ccccc2)cc1 | 32.8 | 43.9
CCN(CC)S(=O)(=O)c1ccc2[nH]cc(C(=O)NCCC3=CCCCC3)c(=O)c2c1 | 91.7 | > 100
Cn1ccc(=Nc2ccc(NC(=O)c3ccc(N=c4ccn(C)c5ccc([N+](=O)[O-])cc45)cc3)cc2)cc1 | < 0.2 | < 0.2
CSc1ccccc1OCc1cc(C(=O)N2CCC(Oc3cccnc3)CC2)no1 | 28.3 | 37.3
O=C(OCC(=O)N1CCN(C(=O)c2ccco2)CC1)c1cc(-c2cccc(Br)c2)nc2ccccc12 |  | > 100
O=C(Cc1ccccc1)N/N=C/c1ccc2cccc(O)c2n1 | 11.3 | 12.6
O=C(CSc1ccccn1)Nc1nonc1[N+](=O)[O-] | 5.73 | 6.24
Cc1cc(Cl)ccc1OCCCC(=O)NO | 65.1 | > 100
O=C(NC1CCN(C(=O)N2c3ccccc3Sc3ccccc32)CC1)c1ccccc1F |  | > 100
CN1CCN(c2ccc(S(=O)(=O)N3CCCCC3)cc2NC(=O)/C=C/c2ccc(Cl)c([N+](=O)[O-])c2)CC1 | 34.9 | 47.6
Cc1cc2c(N=O)c(NO)ccc2[nH]1 | 11.9 | 18.2
C/C(=N/Nc1ccnc2cc(Cl)ccc12)c1ccc(O)cc1 | 30.1 | 36.2
O=C(/C=C\c1cccs1)N1CCN(Cc2ccc3c(c2)OCO3)CC1 | 0.6 | 1.45
Cc1cc(=O)oc2c(C)c(OCC(=O)N3CCN(C(=O)C4COc5ccccc5O4)CC3)ccc12 (stereo unspecified) | 77.1 | > 100
COc1cc(OC)cc(-c2cc3nc(C)c(CCC(=O)NC(C)CCc4ccco4)c(C)n3n2)c1 (stereo unspecified) | 53.2 | 90.5
CN1C(C(=O)NCc2ccc(OC(F)(F)F)cc2)CC2Cn3c(nc4cc(Cl)c(Cl)cc43)C21 (stereo unspecified) | 44.2 | 70.4
Cn1c(CNc2ccccc2O)nc2ccccc21 | 3.05 | 3.36

SMILES | IC50 [µM] | IC90 [µM]
CSc1nsc(SCC(=O)N2CCCCC2)n1 | 8.65 | 12.9
CCC(C)N1CCC2(CC1)N=c1c(c3c4c5c(C)c(O)c3c(O)c1=NC(=O)C(C)=CC=C[C@H](C)[C@H](O)[C@@H](C)[C@@H](O)[C@@H](C)[C@H](OC(C)=O)[C@H](C)[C@@H](OC)C=CO[C@@](C)(O5)C4=O)N2 (stereo partly specified) | < 0.2 | < 0.2
O=C(OCC(=O)N1CCC(c2ccccc2)=N1)c1ccc(Cl)s1 | 97.6 | > 100
CCOC(=O)N/N=C(/C)c1ccc([N+](=O)[O-])o1 | 43.1 | > 100
CNc1nc(-c2ccccn2)nnc1-c1ccccc1 | 22.7 | 25.4
CCOC(=O)c1sc2nc(C)nc(SC(C)C(=O)N(C)c3ccccc3)c2c1C (stereo unspecified) | 34.8 | 44.6
CS(=O)(=O)c1nc(-c2ccccc2)cc(C(F)(F)F)n1 | 18 | 27.6
O=c1c2cc(Br)cc(Br)c2oc2nc3n(c(=O)c12)CCCS3 | 10.4 | 23.3
CCC(=O)NC(=S)Nc1ccc(NC(=O)COc2ccc(Cl)cc2Cl)cc1 | 79.3 | > 100
S=C(NCCN1CCOCC1)N/N=C/c1cccs1 | 6.31 | 7.16
O=c1cc(-c2ccccc2Cl)oc2ccc([N+](=O)[O-])c(O)c12 | 21.4 | 28.2
CC(=O)Nc1ccc(N2C(C(C)=O)=NN(c3ccc(Cl)cc3)C2c2sccc2C)cc1 (stereo unspecified) | 66.6 | 83.9
COc1ccc2c(c1)CC/C(=C\C=C\c1ccccc1OC)C2=O |  | > 100
O=C1NCC(c2ccccc2)C1C(=O)N/N=C\c1ccc(-c2ccc(Cl)c(Cl)c2)o1 (stereo unspecified) |  | > 100
Cn1c(/C=N/Nc2nc3ccccc3[nH]2)nc2ccccc21 | 61.8 | 79.8
Cc1ccc(O)c(C(=O)CC(=O)c2ccccc2Cl)c1 | 17.9 | 27.3
COC(=O)c1cc(/C=C/c2ccccc2)on1 | 29.3 | > 100
Cc1ccc2c(c1)c1c3n2CCN=C3CCC1 | 10.5 | 16
COc1ccc(C2CC(=O)C3=C(C2)NC(C)=C(C#N)C3c2ccc(N(C)C)cc2)cc1 (stereo unspecified) | 22.2 | 35.6
CCNCC(=O)N1c2ccccc2CCc2ccc(NC(=O)OC(C)C)cc21 | 53.7 | 77
